These results are taken from ChEMBL document CHEMBL1125575, “2-[(2-pyridylmethyl)sulfinyl]-1H-thieno[3,4-d]imidazoles. A novel class of gastric H+/K(+)-ATPase inhibitors” (J Med Chem, 1992).

Molecules are shown by their SMILES.

The species entered for data set [1] is Canis familiaris. Description: animal or person. As to conditions: Canis lupus familiaris, iv.
The nature of data set [2]: Chemical stability at pH 5.0. In kind it is physicochemical. The conditions noted are these: buffer.
A further data set in a line: animal or person. The conditions noted are these: Canis lupus familiaris, Stomach, iv, read-out: Inhibition.
A short description of data set [3]: Chemical stability at pH 2.0. In kind it is physicochemical. As to conditions: buffer.
Data set [4] is filed under the species Canis familiaris. Description: animal or person. As to conditions: Canis lupus familiaris, Stomach, intraduodenal, read-out: Inhibition.
Data set [5] is filed under the species Rattus norvegicus. Kind of data set: animal or person. The conditions noted are these: Stomach, iv, read-out: Inhibition.
A further data set is filed under the species Oryctolagus cuniculus. Kind of data set: cells. In kind it is functional, organism-based, Stomach. The conditions noted are these: Stomach.
In data set [6] the test system is Canis familiaris. Description: Antisecretory activity calculated in heidenhain-pouch dog after id administration of the drug, value in parenthesis indicates 95% confidence limits. In kind it is functional. As to conditions: Canis lupus familiaris.
Data set [7] can be described thus: Chemical stability at pH 7.0. As to conditions: buffer. The format is physicochemical.
The subject of data set [8] is Canis familiaris. Description: Antisecretory activity calculated in heidenhain-pouch dog after id administration of the drug. In kind it is functional. The conditions noted are these: Canis lupus familiaris.
Data set [9] has as its system Canis familiaris. Description: Antisecretory activity calculated in heidenhain-pouch dog after iv administration of the drug, values in parenthesis indicates 95% confidence limits. The format is functional. As to conditions: Canis lupus familiaris.
Data set [10] deals with Rattus norvegicus. Kind of data set: In vivo inhibition of gastric acid secretion was calculated in stomach-lumen perfused rat after iv administration of drug at a dose of 5 mg/kg. In kind it is functional.
Data set [11] has as its system Canis familiaris. Kind of data set: In vivo inhibition of gastric acid secretion was calculated in heidenhain-pouch dog after iv administration of the drug at a dose of 0.5 mg/kg. The format is functional. As to conditions: Canis lupus familiaris, Stomach.

Description for Oryctolagus cuniculus: In vitro inhibition of 14C amino-pyrine uptake was determined in isolated rabbit gastric glands after dbcAMP stimulation
Description for physchem: pKa value of the compound

`COc1c(OCC(F)(F)C(F)(F)F)ccnc1C[S+]([O-])c1nc2cscc2[nH]1` (stereo not given): the ED50 in the data set filed under Canis familiaris [1] was 0.13 mg/kg; in the data set with Canis familiaris [6] it was 0.16 mg/kg. In addition, the values for the half-life in data set [2], in [3] and in data set [7] were 7.8 h, 0.183 h and 23 h, respectively. Also, in the data set “animal or person”, the inhibition in vivo at 0.3 mg/kg was found to be 74%. Moreover, in the data set listed under Canis familiaris [4], the inhibition in vivo at 1 mg/kg came out at 95%. Besides, in the data set filed under Rattus norvegicus [5], the inhibition in vivo at 0.5 mg/kg amounted to 57%. For the same compound, the IC50 in the data set listed under Oryctolagus cuniculus is 1000 nM.
For `COc1ccc2[nH]c([S+]([O-])Cc3ncc(C)c(OC)c3C)nc2c1` (stereo not given) [OMEPRAZOLE], the figures for the ED50 with Canis familiaris [8] and in the data set filed under Canis familiaris [1] were 0.25 mg/kg and 0.1 mg/kg, respectively. The figures for the half-life in data set [2], in data set [3] and in data set [7] were 2.26 h, 12 h and 17 h, respectively.
In the case of `[O-][S+](Cc1cc(OCC(F)(F)C(F)(F)C(F)(F)F)ccn1)c1nc2cscc2[nH]1` (stereo not given) [SAVIPRAZOLE], the half-life in data set [2] is 1.4 h; in [3], 0.05 h; in data set [7], 8 h. Besides, the inhibition in vivo at 0.3 mg/kg in “animal or person” amounted to 76%. Moreover, the pKa in “physchem” turned out to be 3.73. Further, the inhibition in vivo at 1 mg/kg in the data set listed under Canis familiaris [4] was 93%. The inhibition in vivo at 0.5 mg/kg in the data set filed under Rattus norvegicus [5] stood at 72%. Also, half-maximal inhibition in the data set listed under Oryctolagus cuniculus (IC50) required 1300 nM. The ED50 in the data set on Canis familiaris [9] was 0.22 mg/kg.
For `Cc1ccnc(C[S+]([O-])c2nc3cscc3[nH]2)c1` (stereo not given), the inhibition in vivo at 5 mg/kg in the data set with Rattus norvegicus [10] is -67%. The inhibition in vivo at 0.5 mg/kg in the data set with Canis familiaris [11] is 72%.
